This is an account of results in patent US20260374818A1, “CATIONIC PEPTIDES WITH BROAD SPECTRUM ACTIVITY” (priority 2023, published 2026).

Like-named read-outs stand apart in the source and are kept apart here. Where a SMILES comes first, the peptide text is derived from it. [ ]: non-standard residue; d: D form. Where only a bound is given, the exact number is not on record here.

The test system of data set [1] is P. aeruginosa PAO1 biofilms. To be noted: P. aeruginosa PAO1 biofilms; >95% pure peptides; crystal violet; BM2 minimal media.
Data set [2] relates to P. aeruginosa PAO1 biofilms. Kind of data set: Biofilm inhibition by SPOT-synthesized AB103-D variants (crystal violet), P. aeruginosa. Type of data set: cell-based, Pseudomonas aeruginosa. To be noted: P. aeruginosa PAO1, SPOT peptides.
The subject of data set [3] is MRSA USA300 biofilms. In words: Biofilm inhibition by >95% pure peptides (crystal violet), MRSA. Type of data set: cell-based, methicillin resistant Staphylococcus aureus. To be noted: MRSA USA300 biofilms, >95% pure peptides, 10% TSB + 0.1% glucose.
Data set [4] is described as follows: Subdermal murine toxicity model. To be noted: 16 hours after administration, 4 mg/kg. As for the experimental part: FIGS. 14A-14B show murine subdermal toxicity assessment of AB103-D derived peptides. Clinical scores were recorded for each peptide treated mouse one hour after peptide administration (FIG. 14A). […] The presence of a cyst or lesion was recorded 16 hours after peptide administration and the size of the cyst was measured using calipers (FIG. 14B). Data shown are the mean of two independent replicates at a peptide dose of 4 mg/kg.
Subdermal murine toxicity model: A subdermal toxicity mouse model was used to evaluate whether peptides induced localized toxicity of treated cutaneous tissue. Mice were anesthetized with 2.5-3% isoflurane and their fur was removed by shaving followed by application of a chemical depilatory. […] Mice were visually assessed and received clinical scores for a battery of signs or symptoms (activity/behaviour change, appearance/grooming, hydration, pain, cyst formation), for which a score of zero was given to animals that appeared normal. Animals were weighed and clinical scores were totalled. Following an overnight (16 h) incubation, mice were scored and weighed then euthanized with CO2 followed by cervical dislocation. Mice were imaged and cysts (swollen, inflamed tissue) were measured using a caliper. Animal experiments were performed in accordance with the Canadian Council on Animal Care (CCAC) guidelines and were approved by the University of British Columbia Animal Care Committee. Female CD-1 mice were purchased from Charles River Laboratories, Inc. (Wilmington, MA). All mice were 8 weeks of age and weighed 25±5 g at the time of the experiment. Animals were group housed in cohorts of three to four littermates. Standard animal husbandry practices were employed.

In data set [5] the test system is MRSA USA 300 LAC planktonic cells. In words: MIC of antibiotics against planktonic cells, MRSA. It counts as cell-based, methicillin resistant Staphylococcus aureus. To be noted: for MIC: Staphylococcus aureus; for MIC in 10% TSB, 0.1% glucose / MIC in MHB medium: MRSA planktonic.
The subject of data set [6] is MRSA USA 300 LAC biofilms. Kind of data set: Checkerboard biofilm synergy of AB103-D with antimicrobials, MRSA. Type of data set: cell-based, methicillin resistant Staphylococcus aureus. To be noted: for FIC: antibiotic used with AB103-D, MRSA USA 300 LAC, ≤0.5 synergy; for Fold decrease AB103-D: in combination of antibiotic with AB103-D; for Fold decrease AB103-D / Fold decrease Antibiotic / Biofilm MBIC in 10% TSB, 0.1% glucose: MRSA; for Fold decrease Antibiotic: in combination with AB103-D; for Biofilm MBIC in 10% TSB, 0.1% glucose: antibiotic alone, at least 70% reduction.

The subject of data set [7] is P. aeruginosa PAO1 planktonic cells. In words: MIC of antibiotics against planktonic cells, PAO1. Type of data set: cell-based, Pseudomonas aeruginosa. To be noted: for MIC: Pseudomonas aeruginosa; for MIC against planktonic cells in BM2 medium: PAO1, BM2; for MIC against planktonic cells in MHB medium: PAO1, MHB.
Data set [8] has as its system P. aeruginosa PAO1 biofilms. Kind of data set: Checkerboard biofilm synergy of AB103-D with antimicrobials, PAO1. It counts as cell-based, Pseudomonas aeruginosa. The settings on record: for FIC against biofilms: antibiotic used with AB103-D, PAO1, BM2, ≤0.5 synergy; for Fold Decrease in concentration of AB103-D: in combination of antibiotic with AB103-D; for Fold Decrease in concentration of AB103-D / Fold Decrease in concentration of Antibiotic: PAO1; for Fold Decrease in concentration of Antibiotic: in combination with AB103-D; for Antibiotic MBIC against biofilms: antibiotic alone, PAO1, BM2, at least 70% reduction.

The mark [9] stands for this setting: read-out: MIC in 10% TSB, 0.1% glucose.
Where [10] appears, read: PAO1, read-out: MIC against planktonic cells in BM2 medium.
[11] abbreviates: PAO1, read-out: MIC against planktonic cells in MHB medium.

`CC[C@@H](C)[C@@H](NC(=O)[C@@H](C)NC(=O)[C@@H](CCCNC(=N)N)NC(=O)[C@@H](Cc1c[nH]c2ccccc12)NC(=O)[C@@H](CCC(N)=O)NC(=O)[C@H](NC(=O)[C@@H](CCCNC(=N)N)NC(=O)[C@H](NC(=O)[C@H](NC(=O)[C@H](NC(=O)[C@H](NC(=O)[C@H](N)CCCNC(=N)N)C(C)C)[C@H](C)CC)C(C)C)[C@H](C)CC)C(C)C)C(N)=O` [AB116-D, rvivirvqwrai] (H-[dR][dV][dI][dV][dI][dR][dV][dQ][dW][dR][dA][dI]-NH2): the “minimum inhibitory concentration of peptide that inhibited at least 90% of biofilm growth (MBIC90)” value in data set [1] is over 16 µM; in data set [3], 1 µM. Further, the “Activity against PAO1 biofilms compared to AB103-D” value in data set [2] was “activity superior to that of AB103-D”. The “Average cyst size compared to DJK-5” value in data set [4] is reported as “smaller than those induced by DJK-5”.

As a reminder, the MIC is the least concentration at which growth counts as inhibited. Regarding `CCN1CCN(C(=O)N[C@@H](C(=O)N[C@@H]2C(=O)N3[C@@H]2SC(C)(C)[C@@H]3C(=O)O)c2ccccc2)C(=O)C1=O` [Piperacillin], in data set [5] (setting [9]), the minimum inhibitory concentration (MIC) worked out at 4 mg/L. For the same molecule, the minimum inhibitory concentration (MIC) in data set [5] (read-out: MIC in MHB medium) turned out to be 4 mg/L. Besides, in data set [6], the FIC is given as 0.63, the “Fold decrease AB103-D” value was 2-fold and the “Fold decrease Antibiotic” value is on record as 8-fold. Also, the minimum inhibitory concentration (MIC) in data set [7] (setting [10]) was found to be 4 mg/L. The MIC in data set [7] (setting [11]) worked out at 8 mg/L. For the same molecule, in data set [8], the FIC against biofilms is listed as 1, the “Fold Decrease in concentration of AB103-D” value (“Fold Decrease … of AB103-D” for short) is on record as 2-fold and the “Fold Decrease in concentration of Antibiotic” value (“Fold Decrease … of Antibiotic” for short) is reported as 2-fold.

With `NC[C@H]1O[C@H](O[C@H]2[C@H](O)[C@@H](O[C@H]3O[C@H](CO)[C@@H](O)[C@H](N)[C@H]3O)[C@H](N)C[C@@H]2N)[C@H](N)C[C@@H]1O` [Tobramycin], in data set [5] (setting [9]), the MIC amounted to 0.125 mg/L. Moreover, the MIC in data set [5] (read-out: MIC in MHB medium) was 0.125 mg/L. Further, in data set [6], the FIC came out at 0.38, the “Fold decrease AB103-D” value is on record as 8-fold and the “Fold decrease Antibiotic” value is reported as 4-fold. Besides, the MIC in data set [7] (setting [10]) was 2 mg/L. For the same molecule, the minimal inhibitory concentration (MIC) in data set [7] (setting [11]) was determined as 0.5 mg/L. Moreover, in data set [8], the FIC against biofilms was found to be 1, the “Fold Decrease … of AB103-D” value was 2-fold and the “Fold Decrease … of Antibiotic” value was 2-fold.

`COc1cc(Cc2cnc(N)nc2N)cc(OC)c1OC` [Trimethoprim]: the minimum inhibitory concentration (MIC) in data set [5] (setting [9]) came to 8 mg/L. Besides, in data set [5] (read-out: MIC in MHB medium), the MIC amounted to 2 mg/L. In data set [6], the FIC is 0.56, the “Fold decrease AB103-D” value was 2-fold and the “Fold decrease Antibiotic” value is 16-fold. In addition, in data set [7] (setting [10]), the minimal inhibitory concentration (MIC) is 128 mg/L. For the same molecule, the MIC in data set [7] (setting [11]) was 256 mg/L. In data set [8], the FIC against biofilms worked out at 1, the “Fold Decrease … of AB103-D” value is on record as 2-fold and the “Fold Decrease … of Antibiotic” value is 2-fold.

Consider `CN[C@H](CC(C)C)C(=O)N[C@H]1C(=O)N[C@@H](CC(N)=O)C(=O)N[C@H]2C(=O)N[C@H]3C(=O)N[C@H](C(=O)N[C@H](C(=O)O)c4cc(O)cc(O)c4-c4cc3ccc4O)[C@H](O)c3ccc(c(Cl)c3)Oc3cc2cc(c3O[C@@H]2O[C@H](CO)[C@@H](O)[C@H](O)[C@H]2O[C@H]2C[C@](C)(N)[C@H](O)[C@H](C)O2)Oc2ccc(cc2Cl)[C@H]1O` [Vancomycin], for which the MIC in data set [5] (setting [9]) is 0.25 mg/L. The minimum inhibitory concentration (MIC) in data set [5] (read-out: MIC in MHB medium) is 0.25 mg/L. In data set [6], the FIC worked out at 0.38, the “Fold decrease AB103-D” value is reported as 8-fold and the “Fold decrease Antibiotic” value is 4-fold. In addition, the minimum inhibitory concentration (MIC) in data set [7] (setting [10]) is 256 mg/L. Moreover, the minimum inhibitory concentration (MIC) in data set [7] (setting [11]) is over 256 mg/L. Further, in data set [8], the FIC against biofilms is 0.56, the “Fold Decrease … of AB103-D” value is given as 2-fold and the “Fold Decrease … of Antibiotic” value is listed as 16-fold.

In the case of Benzalkonium-C1, in data set [5], the “MIC in 10% TSB, 0.1% glucose” value stood at 1 and the MIC in MHB medium came out at 0.25 mg/L. In data set [6], the “Biofilm MBIC in 10% TSB, 0.1% glucose” value worked out at 1; the FIC turned out to be 0.5; the “Fold decrease AB103-D” value is 4-fold; the “Fold decrease Antibiotic” value was 4-fold. For the same molecule, in data set [7], the “MIC against planktonic cells in BM2 medium” value (“MIC … in BM2 medium” below) is 16 mg/L and the “MIC against planktonic cells in MHB medium” value is 16 mg/L. In addition, in data set [8], the “Antibiotic MBIC against biofilms” value is 16 µg/mL, the FIC against biofilms came to 0.51, the “Fold Decrease … of AB103-D” value is recorded as 2-fold and the “Fold Decrease … of Antibiotic” value is listed as 128-fold.

Consider Colistin, for which, in data set [5], the “MIC in 10% TSB, 0.1% glucose” value is given as 4 and the MIC in MHB medium is 8 mg/L. For the same molecule, in data set [6], the “Biofilm MBIC in 10% TSB, 0.1% glucose” value was determined as 2; the FIC stood at 0.63; the “Fold decrease AB103-D” value is 2-fold; the “Fold decrease Antibiotic” value is 8-fold. Besides, in data set [7], the “MIC … in BM2 medium” value was 4 mg/L and the “MIC against planktonic cells in MHB medium” value was determined as 1 mg/L. Moreover, in data set [8], the “Antibiotic MBIC against biofilms” value stood at 4 µg/mL, the FIC against biofilms worked out at 0.63, the “Fold Decrease … of AB103-D” value is reported as 8-fold and the “Fold Decrease … of Antibiotic” value was 2-fold.

For Gentamicin, in data set [5], the “MIC in 10% TSB, 0.1% glucose” value is on record as 0.06 and the MIC in MHB medium was 0.06 mg/L. In data set [6], the “Biofilm MBIC in 10% TSB, 0.1% glucose” value stood at 0.03; the FIC is reported as 1.13; the “Fold decrease AB103-D” value is listed as “No”; the “Fold decrease Antibiotic” value is listed as 8-fold. In data set [7], the “MIC … in BM2 medium” value is 4 mg/L and the “MIC against planktonic cells in MHB medium” value turned out to be 1 mg/L. For the same molecule, in data set [8], the “Antibiotic MBIC against biofilms” value is 4 µg/mL, the FIC against biofilms is listed as 0.53, the “Fold Decrease … of AB103-D” value is listed as 2-fold and the “Fold Decrease … of Antibiotic” value was 32-fold.

With Polymyxin B, in data set [5], the “MIC in 10% TSB, 0.1% glucose” value amounted to 2 and the MIC in MHB medium is 4 mg/L. In addition, in data set [6], the “Biofilm MBIC in 10% TSB, 0.1% glucose” value was determined as 2; the FIC was 0.5; the “Fold decrease AB103-D” value was 4-fold; the “Fold decrease Antibiotic” value is given as 4-fold. Further, in data set [7], the “MIC … in BM2 medium” value came to 2 mg/L and the “MIC against planktonic cells in MHB medium” value turned out to be 2 mg/L. In data set [8], the “Antibiotic MBIC against biofilms” value is 2 µg/mL, the FIC against biofilms is listed as 0.56, the “Fold Decrease … of AB103-D” value was 16-fold and the “Fold Decrease … of Antibiotic” value is 2-fold.

With Polyvinylpyrrolidone-Iodine, in data set [5], the “MIC in 10% TSB, 0.1% glucose” value came to 156 and the MIC in MHB medium is 2500 mg/L. In addition, in data set [6], the “Biofilm MBIC in 10% TSB, 0.1% glucose” value is reported as 156; the FIC was determined as 0.63; the “Fold decrease AB103-D” value is 2-fold; the “Fold decrease Antibiotic” value was 8-fold. For the same molecule, in data set [7], the “MIC … in BM2 medium” value came to 313 mg/L and the “MIC against planktonic cells in MHB medium” value came out at 2500 mg/L. Further, in data set [8], the “Antibiotic MBIC against biofilms” value came to 313 µg/mL, the FIC against biofilms is recorded as 0.52, the “Fold Decrease … of AB103-D” value is 2-fold and the “Fold Decrease … of Antibiotic” value was 64-fold.
